# PubChem BioAssay (NCI)
#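 Here, GI50 denotes the concentration required for 50% inhibition of growth. TGI is the concentration that stops growth completely.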
# What was measured:
# Assay in all cases: NCI anticancer screen, dose series, 384-well format
# [1] = test system: 786-0 renal
# [2] = test system: A498 renal
# [3] = test system: A549 NSCLC
# [4] = test system: ACHN renal
# [5] = test system: BT-549 breast
# [6] = test system: CAKI-1 renal
# [7] = test system: CCRF-CEM leukemia
# [8] = test system: DU-145 prostate
# [9] = test system: EKVX NSCLC
# [10] = test system: HCC-2998 colon
# [11] = test system: HOP-62 NSCLC
# [12] = test system: HOP-92 NSCLC
# [13] = test system: HS 578T breast
# [14] = test system: HT29 colon
# [15] = test system: IGROV1 ovarian
# [16] = test system: K-562 leukemia
# [17] = test system: LOX IMVI melanoma
# [18] = test system: M14 melanoma
# [19] = test system: MALME-3M melanoma
# [20] = test system: MCF7 breast
# [21] = test system: MDA-MB-231 breast
# [22] = test system: MDA-MB-435 melanoma
# [23] = test system: MDA-MB-468 breast
# [24] = test system: MOLT-4 leukemia
# [25] = test system: NCI-H226 lung
# [26] = test system: NCI-H23 lung
# [27] = test system: NCI-H322M lung
# [28] = test system: NCI-H460 NSCLC
# [29] = test system: NCI-H522 lung
# [30] = test system: OVCAR-4 ovarian
# [31] = test system: OVCAR-5 ovarian
# [32] = test system: PC-3 prostate
# [33] = test system: RPMI-8226 leukemia
# [34] = test system: RXF 393 renal
# [35] = test system: SF-268 CNS
# [36] = test system: SF-295 CNS
# [37] = test system: SF-539 CNS
# [38] = test system: SK-MEL-2 melanoma
# [39] = test system: SK-MEL-28 melanoma
# [40] = test system: SK-OV-3 ovarian
# [41] = test system: SN12C renal
# [42] = test system: SNB-75 CNS
# [43] = test system: SR leukemia
# [44] = test system: SW-620 colon
# [45] = test system: T-47D breast
# [46] = test system: UACC-257 melanoma
# [47] = test system: UO-31 renal
smiles,measurement,setting,value
CC1=C(c2cccc(O)c2)[C@H](c2ccc(OCCN3CC(CF)C3)cc2)Oc2ccc(O)cc21,GI50,[1],2.65 µM
same,TGI,[1],7.32 µM
same,GI50,[2],2.28 µM
same,TGI,[2],6.48 µM
same,GI50,[3],9.02 µM
same,TGI,[3],21.2 µM
same,GI50,[4],11.1 µM
same,TGI,[4],23.2 µM
same,GI50,[5],3.24 µM
same,TGI,[5],12.6 µM
same,GI50,[6],3.42 µM
same,TGI,[6],13.5 µM
same,GI50,[7],2.11 µM
same,TGI,[7],4.88 µM
same,GI50,[8],10.8 µM
same,TGI,[8],22.7 µM
same,GI50,[9],5.1 µM
same,TGI,[9],17.5 µM
same,GI50,[10],1.54 µM
same,TGI,[10],3.23 µM
same,GI50,[11],4.55 µM
same,TGI,[11],15 µM
same,GI50,[12],3.83 µM
same,TGI,[12],13.1 µM
same,GI50,[13],2.48 µM
same,TGI,[13],12 µM
same,GI50,[14],1.94 µM
same,TGI,[14],3.58 µM
same,GI50,[15],4.88 µM
same,TGI,[15],16.9 µM
same,GI50,[16],1.73 µM
same,TGI,[16],3.29 µM
same,GI50,[17],1.77 µM
same,TGI,[17],3.34 µM
same,GI50,[18],1.89 µM
same,TGI,[18],3.88 µM
same,GI50,[19],1.64 µM
same,TGI,[19],3.05 µM
same,TGI,[20],1.97 µM
same,GI50,[21],6.48 µM
same,TGI,[21],19.2 µM
same,GI50,[22],10.7 µM
same,TGI,[22],22.6 µM
same,GI50,[23],1.94 µM
same,TGI,[23],4.35 µM
same,GI50,[24],1.58 µM
same,TGI,[24],2.97 µM
same,GI50,[25],6.19 µM
same,TGI,[25],19.4 µM
same,GI50,[26],7.02 µM
same,TGI,[26],19.6 µM
same,GI50,[27],6.69 µM
same,TGI,[27],19.6 µM
same,GI50,[28],2.18 µM
same,TGI,[28],4.88 µM
same,GI50,[29],11.1 µM
same,TGI,[29],23.1 µM
same,GI50,[30],5.79 µM
same,TGI,[30],17.8 µM
same,GI50,[31],10.3 µM
same,TGI,[31],22.1 µM
same,GI50,[32],4.5 µM
same,TGI,[32],16.9 µM
same,GI50,[33],1.82 µM
same,TGI,[33],4.02 µM
same,GI50,[34],1.87 µM
same,TGI,[34],5.29 µM
same,GI50,[35],4.24 µM
same,TGI,[35],15.6 µM
same,GI50,[36],11.6 µM
same,TGI,[36],23.9 µM
same,GI50,[37],2.03 µM
same,TGI,[37],4.26 µM
same,GI50,[38],1.96 µM
same,TGI,[38],3.78 µM
same,GI50,[39],3.05 µM
same,TGI,[39],11.6 µM
same,GI50,[40],5.77 µM
same,TGI,[40],18.3 µM
same,GI50,[41],7.94 µM
same,TGI,[41],20.6 µM
same,GI50,[42],2.36 µM
same,TGI,[42],7.79 µM
same,GI50,[43],1.79 µM
same,TGI,[43],3.23 µM
same,GI50,[44],4.9 µM
same,TGI,[44],16.6 µM
same,GI50,[45],1.11 µM
same,TGI,[45],12.4 µM
same,GI50,[46],1.64 µM
same,TGI,[46],3.01 µM
same,GI50,[47],9.8 µM
same,TGI,[47],21.5 µM
Cc1cc([N+](=O)[O-])c(NS(=O)(=O)c2cccc(C(=O)O)c2)cc1-c1cccnc1,GI50,[1],> 100 µM
same,TGI,[1],> 100 µM
same,GI50,[2],> 100 µM
same,TGI,[2],> 100 µM
same,GI50,[3],> 100 µM
same,TGI,[3],> 100 µM
same,GI50,[4],> 100 µM
same,TGI,[4],> 100 µM
same,GI50,[5],> 100 µM
same,TGI,[5],> 100 µM
same,GI50,[6],> 100 µM
same,TGI,[6],> 100 µM
same,GI50,[7],> 100 µM
same,TGI,[7],> 100 µM
same,GI50,[8],> 100 µM
same,TGI,[8],> 100 µM
same,GI50,[9],> 100 µM
same,TGI,[9],> 100 µM
same,GI50,[10],> 100 µM
same,TGI,[10],> 100 µM
same,GI50,[11],> 100 µM
same,TGI,[11],> 100 µM
same,GI50,[12],> 100 µM
same,TGI,[12],> 100 µM
same,GI50,[13],> 100 µM
same,TGI,[13],> 100 µM
same,GI50,[14],> 100 µM
same,TGI,[14],> 100 µM
same,GI50,[15],> 100 µM
same,TGI,[15],> 100 µM
same,GI50,[16],> 100 µM
same,TGI,[16],> 100 µM
same,GI50,[17],> 100 µM
same,TGI,[17],> 100 µM
same,GI50,[18],> 100 µM
same,TGI,[18],> 100 µM
same,GI50,[19],> 100 µM
same,TGI,[19],> 100 µM
same,GI50,[20],> 100 µM
same,TGI,[20],> 100 µM
same,GI50,[21],> 100 µM
same,TGI,[21],> 100 µM
same,GI50,[22],> 100 µM
same,TGI,[22],> 100 µM
same,GI50,[23],> 100 µM
same,TGI,[23],> 100 µM
same,GI50,[24],> 100 µM
same,TGI,[24],> 100 µM
same,GI50,[25],> 100 µM
same,TGI,[25],> 100 µM
same,GI50,[26],> 100 µM
same,TGI,[26],> 100 µM
same,GI50,[27],> 100 µM
same,TGI,[27],> 100 µM
same,GI50,[28],> 100 µM
same,TGI,[28],> 100 µM
same,GI50,[29],> 100 µM
same,TGI,[29],> 100 µM
same,GI50,[30],> 100 µM
same,TGI,[30],> 100 µM
same,GI50,[31],> 100 µM
same,TGI,[31],> 100 µM
same,GI50,[32],> 100 µM
same,TGI,[32],> 100 µM
same,GI50,[33],> 100 µM
same,TGI,[33],> 100 µM
same,GI50,[34],> 100 µM
same,TGI,[34],> 100 µM
same,GI50,[35],> 100 µM
same,TGI,[35],> 100 µM
same,GI50,[36],> 100 µM
same,TGI,[36],> 100 µM
same,GI50,[37],> 100 µM
same,TGI,[37],> 100 µM
same,GI50,[38],> 100 µM
same,TGI,[38],> 100 µM
same,GI50,[39],> 100 µM
same,TGI,[39],> 100 µM
same,GI50,[40],> 100 µM
same,TGI,[40],> 100 µM
same,GI50,[41],> 100 µM
same,TGI,[41],> 100 µM
same,GI50,[42],> 100 µM
same,TGI,[42],> 100 µM
same,GI50,[43],> 61.5 µM
same,TGI,[43],> 100 µM
same,GI50,[44],> 100 µM
same,TGI,[44],> 100 µM
same,GI50,[45],> 100 µM
same,TGI,[45],> 100 µM
same,GI50,[46],> 100 µM
same,TGI,[46],> 100 µM
same,GI50,[47],> 100 µM
same,TGI,[47],> 100 µM
